Values of other authors, collected in US12205808B2 (priority 2019, dated 2025).

Settings: in vivo

Row | SMILES | Concentration in plasma [ng/mL] | Whole blood concentrations [ng/mL] | Concentration in postmortem plasma samples [ng/mL]
1 | CC(C)[C@H](NC(=O)c1nn(CC2CCCCC2)c2ccccc12)C(N)=O | 0.4 to 14.3 | 0.6 to 10 | 
2 | N#CCCCCn1cc(C(=O)c2cccc3ccccc23)c2ccccc21 [AM-2232] |  |  | 0.86
3 | Cc1ccc(C(=O)c2cn(CCCCCF)c3ccccc23)c2ccccc12 [MAM-2201] |  |  | 16.3
